Reference: patent EP0639978B1, “PHARMACEUTICAL COMBINATION HAVING ANTINEOPLASTIC ACTIVITY” (priority 1991, dated 1992)
Structures can show the parent of a compound that is named as a salt.

Tests used:
[1] = test system: P388 leukemia; assay: Therapeutic activity in P388 leukemia treatment (survival); format: in vivo, BDFl female mice; conditions: for ILS (%): survival increase vs untreated controls
Protocol: The following tables and the enclosed figures refer to experiments carried out on BDFl mice inoculated with P388 leukemic cells and wherein the effect of DDP-Pd.HCl combination is compared, in terms of toxicity and therapeutic efficacy, with the one of the different components. From Pd-HCl toxicity results, which are reported in Table 1, the 50 mg/kg of Pd.HCl dose was selected for the investigations suited for the evaluation of DDP-Pd.HCl combination toxicity and therapeutic efficacy.

[2] = test system: kidneys of P388 leukemic BDFl mice; assay: Histological evaluation of renal damage; format: in vivo
Protocol: Stromal connective, wherein rare and scattered fibroblasts were detected, appeared remarkably thickened with resulting intertubular space increase. Renal corpuscle morphology appeared in a good preservation state in the components thereof and a slight increase of the glomerular chamber was recognized in few corpuscles only.
Immediately after withdrawal, renal parenchyma was fixed with 2.5% glutaraldehyde in 0.1 M Na cacodylate buffer (pH = 7.4) for 120 min.
After washing in the same buffer, the samples were dehydrated with ethanol and embedded in Epon 812. LKB Ultratom III microtome 2 µm sections were stained with aqueous 1% toluidine blue.

[3] = DDP 8 mg/kg i.p. days 1 and 5, vehicle H2O
[4] = DDP 16 mg/kg i.p. day 1, vehicle 0,9% NaCl
[5] = DDP 16 mg/kg i.p. day 1, vehicle H2O
[6] = Pd.HCl 50 mg/kg in H2O i.v., no DDP

Compound	Survivors on day 60 (alive/treated) [1, 3]	MST ([1]; DDP 8 mg/kg i.p. days 1 and 5, vehicle H2O, median survival time, untreated controls 12 days) [days]	ILS (%) [1, 3] [%]	Survivors on day 60 (alive/treated) [1, 4]	MST ([1]; DDP 16 mg/kg i.p. day 1, vehicle 0,9% NaCl, median survival time, untreated controls 12 days) [days]	ILS (%) [1, 4] [%]	Survivors on day 60 (alive/treated) [1, 5]	MST ([1]; DDP 16 mg/kg i.p. day 1, vehicle H2O, median survival time, untreated controls 12 days) [days]	ILS (%) [1, 5] [%]	Hystological evaluation of renal damage ([2]; 8 mg/kg of DDP alone at days 1, 5 and 9, mice killed the 10th day, cortical zone)	MST [1, 6] [days]	Survivors on day 60 (alive/treated) [1, 6]	ILS (%) [1, 6]	antitumor activity ([1]; procainamide by itself)	Hystological evaluation of renal damage ([2]; mouse, in vivo, 50 mg/kg)
N.N.[Cl][Pt][Cl] [DDP, Cisplatin]	0/8	7	-42	2/10	22	83	0/10	5	-58	renal parenchyma alterations					
CCN(CC)CCNC(=O)c1ccc(N)cc1 [Pd.HCl, procainamide hydrochloride]											13	0/8	8,3%	no antitumor activity	a picture similar to the one observed with DDP only
